Columns and labels:
[1] = system: pain in post-herpetic neuralgia; settings: number of patients treated for one patient to experience more than 50% pain relief; cited from earlier work
[2] = system: cold allodynia in polyneuropathic pain; assay: Polyneuropathic pain model according to Authier (vincristine-induced), cold allodynia with acetone drop; format: in vivo, Sprague Dawley rats
Procedure: (§1) Male Sprague Dawley rats (140-180 g, Janvier, France) were kept under standard conditions (06.00-18.00 light, 18.00-06.00 darkness; 20-24° C. room temperature, 35-70% relative humidity; tap water and standard feed (ad libitum)) in groups of five animals in Macrolon type 4 cages.
The investigation was carried out according to Authier et al., Neuroreport, 1999, 10, 965-8.
Three days after the final vincristine treatment, the animals had developed hypersensitivity to cold (cold allodynia) which continued over a period of three weeks. For testing, the animals were placed under a plastic cover on a grating and, after habituation, cold allodynia was quantified. To this end, a drop of acetone (10 μl) was carefully applied onto a hind paw with a syringe and a thin plastic tube. The number of induced withdrawal responses (shaking, stamping or licking) was recorded over a period of 30 sec. The cumulative number from 5 stimulations (at 5 min intervals from one another) was determined before and at different times after administration of the substance or the vehicle. The percentage inhibition value (% MPE) was determined in comparison with the particular pretest (0% MPE) and with the weekly vehicle control group (100% MPE=0 withdrawal responses). The size of the group was usually n=10. The significance of a substance's action was determined on the basis of the percentage inhibition value relative to the vehicle group by means of bifactorial analysis of variance and post hoc Bonferroni analysis, the ED50 value by linear regression analysis for the individual measurement points.

[3] = system: cold allodynia in mononeuropathic pain; assay: Mononeuropathic pain model according to Bennett (ischial nerve ligatures), cold allodynia on cold metal plate at 4° C.; format: in vivo, Sprague Dawley rats
Procedure: as §1
The investigation was carried out according to Bennett et al., Pain, 1988, 33, 87-107.
Under pentobarbital anaesthesia (Narcocen, 60 mg/kg i.p., Merial GmbH, Germany), four loose ligatures were placed unilaterally on the right ischial nerve. On the paw innervated by the damaged nerve, the animals developed hypersensitivity which, after one week's convalescence, was quantified over a period of approx. four weeks using a cold metal plate at 4° C. (cold allodynia). The animals were observed on this plate for a period of 2 min. and the number of withdrawal responses by the damaged paw was measured. The action of the substance, relative to the preliminary value before administration of the substance, was determined over a period of one hour at four different times (15, 30, 45, 60 min after administration). The inhibition of cold allodynia at the individual measurement times was stated in percent relative to the individual pretest (% MPE), with the pretest corresponding to 0% MPE and complete inhibition (0 withdrawal responses per 2 min) to 100% MPE. Group size was n=10. The significance of a substance's action was determined on the basis of the percentage inhibition values relative to the vehicle group by bifactorial analysis of variance and post hoc Bonferroni analysis, the ED50 value by linear regression analysis for the individual measurement points or the area under the curve (AUC).

[4] = system: pain in diabetic polyneuropathy; settings: number of patients treated for one patient to experience more than 50% pain relief; cited from earlier work

Q: Which “NNT (Numbers Needed to Treat)” value [1] does the source give for COc1ccc2c3c1O[C@H]1C(=O)CC[C@@]4(O)[C@@H](C2)N(C)CC[C@]314 [Oxycodone] here?
A: 2.5

Q: Which results are given for CN(C)C[C@@H]1CCCC[C@H]1c1cccc(O)c1 [(1R,2R)-3-(2-Dimethylaminomethylcyclohexyl)phenol]?
A: dose of significant inhibition, mononeuropathic versus polyneuropathic pain model ([2]; 21.5 mg/kg i.p. versus 4.64 mg/kg i.p.): more than four times higher; inhibition of cold allodynia (in words) ([2]; 10-21.5 mg/kg i.p.): dose-dependent inhibition; maximum effect ([2]; 30 min after administration of 21.5 mg/kg): 74 % MPE; ED50 ([2]; Rattus norvegicus, ip, 0.5 h, 30 min after administration, i.p., polyneuropathic pain model, read-out: ED50 value (95% VB)): 5.7 mg/kg; efficacy in polyneuropathic pain relative to mononeuropathic pain in an animal model ([2]; animal model): approx. four times greater; inhibition of cold allodynia, Mean ([2]; dose 2.15 (mg/kg i.p.), 30 min): 48.4 % MPE; inhibition of cold allodynia, Mean ([2]; dose 2.15 (mg/kg i.p.), 180 min): −37.7 % MPE; inhibition of cold allodynia, Mean ([2]; dose 4.64 (mg/kg i.p.), 30 min): 67.9 % MPE; inhibition of cold allodynia, Mean ([2]; dose 4.64 (mg/kg i.p.), 180 min): 22.6 % MPE; inhibition of cold allodynia, Mean ([2]; dose 10 (first dose line of the table, i.p.), 30 min): −28.9 % MPE; inhibition of cold allodynia, Mean ([2]; dose 10 (first dose line of the table, i.p.), 180 min): −22.2 % MPE; inhibition of cold allodynia, Mean ([2]; dose 10 (fourth dose line of the table, mg/kg i.p.), 30 min): 58.7 % MPE; inhibition of cold allodynia, Mean ([2]; dose 10 (fourth dose line of the table, mg/kg i.p.), 180 min): 20.8 % MPE; inhibition of cold allodynia, Mean ([2]; dose 21.5 (mg/kg i.p.), 30 min): 74.2 % MPE; inhibition of cold allodynia, Mean ([2]; dose 21.5 (mg/kg i.p.), 180 min): 15.2 % MPE; minimally active dose at which a statistically significant inhibition was obtained ([2]; i.p., polyneuropathic pain model): 4.64 mg/kg; inhibition of cold allodynia (in words) ([3]; 10-31.6 mg/kg i.p.): dose-dependent inhibition; maximum effect ([3]; 15 min after administration of 31.6 mg/kg): 80 % MPE; ED50 ([3]; Rattus norvegicus, ip, 0.5 h, 30 min after administration, i.p., mononeuropathic pain model, read-out: ED50 value (95% VB)): 17.6 mg/kg; inhibition of cold allodynia, Mean ([3]; dose 10 (mg/kg i.p.), 15 min after administration): 22.16 % MPE; inhibition of cold allodynia, Mean ([3]; dose 10 (mg/kg i.p.), 30 min after administration): 20.93 % MPE; inhibition of cold allodynia, Mean ([3]; dose 10 (mg/kg i.p.), 45 min after administration): 8.60 % MPE; inhibition of cold allodynia, Mean ([3]; dose 10 (mg/kg i.p.), 60 min after administration): 9.23 % MPE; inhibition of cold allodynia, Mean ([3]; dose 21.5 (mg/kg i.p.), 15 min after administration): 56.62 % MPE; inhibition of cold allodynia, Mean ([3]; dose 21.5 (mg/kg i.p.), 30 min after administration): 61.06 % MPE; inhibition of cold allodynia, Mean ([3]; dose 21.5 (mg/kg i.p.), 45 min after administration): 34.96 % MPE; inhibition of cold allodynia, Mean ([3]; dose 21.5 (mg/kg i.p.), 60 min after administration): 16.33 % MPE; inhibition of cold allodynia, Mean ([3]; dose 31.6 (mg/kg i.p.), 15 min after administration): 80.03 % MPE; inhibition of cold allodynia, Mean ([3]; dose 31.6 (mg/kg i.p.), 30 min after administration): 79.15 % MPE; inhibition of cold allodynia, Mean ([3]; dose 31.6 (mg/kg i.p.), 45 min after administration): 61.68 % MPE; inhibition of cold allodynia, Mean ([3]; dose 31.6 (mg/kg i.p.), 60 min after administration): 21.18 % MPE; minimally active dose at which a statistically significant inhibition was obtained ([3]; i.p., mononeuropathic pain model): 21.5 mg/kg

Q: With NC(=O)N1c2ccccc2C=Cc2ccccc21 [Carbamazepine] as the compound, how does the “NNT (Numbers Needed to Treat)” value [4] read?
A: 3.3

Q: Which “NNT (Numbers Needed to Treat)” value [4] does the source give for CN(C)CCCN1c2ccccc2CCc2ccccc21 [Imipramine] here?
A: 1.4

Q: With COc1ccc2c(c1)[C@]13CCCC[C@@H]1[C@H](C2)N(C)CC3 [Oextromethorphan] as the compound, how does the “NNT (Numbers Needed to Treat)” value [4] read?
A: 1.9

Q: Which “NNT (Numbers Needed to Treat)” value [4] does the source give for Cc1cccc(C)c1OCC(C)N (stereo not shown) [Mexiletine] here?
A: 10.0

Q: For N[C@@H](Cc1ccc(O)c(O)c1)C(=O)O [L-Dopa], which “NNT (Numbers Needed to Treat)” value [4] is on record?
A: 3.4

Q: For COc1cc(CNC(=O)CCCC/C=C/C(C)C)ccc1O [Capsaicin], which “NNT (Numbers Needed to Treat)” value [1] is on record?
A: 5.3

Q: And the “NNT (Numbers Needed to Treat)” value [4]?
A: 5.9

Q: What does the source list for NCC1(CC(=O)O)CCCCC1 [Gabapentin]?
A: NNT (Numbers Needed to Treat) [1]: 3.2; NNT (Numbers Needed to Treat) [4]: 3.7

Q: Which “NNT (Numbers Needed to Treat)” value [4] does the source give for COc1cccc(C2(O)CCCCC2CN(C)C)c1 (stereo not shown) [Tramadol] here?
A: 3.4

From patent publication US20090197960A1, “Method of Inhibiting Polyneuropathic Pain with 3-(2-Dimethylaminomethylcyclohexyl) Phenol” (Gruenenthal GmbH, priority 2008, published 2009)
